Measurements from patent US4952393A, “Organ infarct imaging with technetium labelled glucarate” (The General Hospital Corporation, priority 1988, dated 1990).
Where two headings read alike, the source gives them in different places.

What was measured:
cerebral infarct = experiment: Detection of cerebral infarct in the rat (gamma imaging, localization ratio); type: in vivo, Sprague-Dawley CD rats; details: for DDC activity (mean +/- SD), ratio infarct:normal brain: 0.6 mCi, perfusion deficit marker; for Tc-99m-glucarate activity (mean +/- SD), ratio stroke regions to normal cerebral regions: i.v., 1.5-2.0 mCi
Description: Tc-99m-glucarate was used to visualize cerebral infarct regions in the rat brain.
Experimental cerebral infarcts were created in 28 Sprague-Dawley CD rats (Charles River Laboratories) by injection of thrombin-generated thrombi into an isolated carotid artery. […] Imaging was performed 1.5-2.0 hours later utilizing a gamma camera having a 3 mm diameter pin hole collimator. […] The gamma images obtained were analyzed by computer planimetry. Ratios of count densities in infarct regions and normal brain regions were calculated.

[1] = Biodistribution of 99mTc-glucarate in various organs in Balb/c mice; type: in vivo; details: i.v., 100 uCi
Description: Biodistribution studies were carried out in Balb/c mice. The mice (3 mice per group) were injected intravenously with 100 uCi of technetium-labeled D-glucarate. […]

[2] = room temperature, 1 hr
Description: Monopotassium glucarate (25 mg) was dissolved in 0.2M bicarbonate (1.0 ml) at pH 8.0. To 500 ul of glucarate solution, 40 ul of stannous chloride (2.5 mg/ml) in 0.1M acetic acid was added, followed by 500 ul of ^99m Tc generator eluate (60 mCi). The resulting solution was allowed to stand for 5 minutes at room temperature, and then analyzed for radiochemical purity by paper chromatography (Whatman 3MM, 60% CH3 CN:40% H2 O)
^99m Tc-glucarate was prepared as described in Example 1 using different concentrations of potassium glucarate (0.09-12.25 mg/ml). The products were analyzed by paper chromatography (Whatman 3MM, 60% CH3 CN:40%H2 O; ^99m TcO4 ^-Rf= 1.0, ^99m Tc-glucarate,Rf=0.4; ^99m TcO2 ×H2 O, Rf=0).

acute myocardial infarct = experiment: Detection of myocardial infarct in the dog (gamma camera imaging); details: for visualization of area of acute myocardial necrosis / blood pool activity: 80 minutes after injection; for visualization of area of acute myocardial necrosis: 10 mCi
Description: Mongrel dogs (n=3) were anesthetized with intravenous pentobartitol (30 mg/kg), and respiration maintained on a Harvard respirator. Left thoractomy was performed, the heart suspended in a pericardial cradle and a segment of the left anterior descending coronary artery (LAD) approximately two thirds the distance from the apex to the base was dissected free. The LAD was then occluded with a silk ligature. After three hours of LAD occlusion, the occlusive ligature was removed and reperfusion was established. At 15 minutes of reperfusion, 200 uCi of indium labeled R11D10 Fab-DTPA (Centocor, Inc.) was injected, and 30 seconds later, 10 mCi of technetium labeled glucarate was injected. Serial imaging with a gamma camera was initiated immediately upon tracer administration.
After 5 hours of in vivo imaging sessions, the dogs were sacrificed by pentobarbital overdose. Then, the cardiac tissue was stained with an intravenous triphenyltetrazolium chloride infusion. The heart was excised, washed with cold water, and imaged as a whole excised heart; and also as heart slices cut parallel to the atrioventricular groove in four slices after overnight storage at 4° C. Each slice was then divided into eight equal pieces and each piece subdivided into epicardial and endocardial samples, weighed and then counted in a gamma well counter (LKB Compu Gamma counter) for distribution of the various radioisotopes. […] Blood samples from the contralateral vein were obtained at 1, 2, 3, 4, 5, 10, 15, 20, 30, 45, 60, and 75 minutes. […] At the time of sacrifice, tissue samples from the liver, lungs, kidneys, spleen, and skeletal muscles were also obtained.

[3] = preparation made from 12 mg/ml glucarate
Description: Samples of ^99m -Tc-glucarate prepared as described in Example 1 from 6 and 12 mg/ml potassium glucarate were analyzed over a period of 7 hours.

myocardial infarct = details: Rossman et al., J. Nucl. Med. 16: 980-985 (1975); cited from earlier work
[4] = dog, listed as 99m Tc-glucarate

T1-201 diethyldithiocarbamate [DDC, reference compound]
DDC activity (mean +/- SD), ratio infarct:normal brain (cerebral infarct; 1 hour after infarct, rats): 0.3 +/- 0.1
DDC activity (mean +/- SD), ratio infarct:normal brain (cerebral infarct; 3 hours after infarct, rats): 0.3 +/- 0.3
DDC activity (mean +/- SD), ratio infarct:normal brain (cerebral infarct; 5 hours after infarct, rats): 0.4 +/- 0.2
DDC activity (mean +/- SD), ratio infarct:normal brain (cerebral infarct; 24 hours after infarct, rats): 0.3 +/- 0.2

Tc-99m-glucarate
Biodistribution, Blood ([1]; 1 hour): 1.72 ± 0.43 % Injected Dose Per Gram
Biodistribution, Heart ([1]; 1 hour): 0.63 ± 1.10 % Injected Dose Per Gram
Biodistribution, Intestine ([1]; 1 hour): 2.90 ± 1.12 % Injected Dose Per Gram
Biodistribution, Kidneys ([1]; 1 hour): 24.3 ± 4.15 % Injected Dose Per Gram
Biodistribution, Liver ([1]; 1 hour): 1.54 ± 0.51 % Injected Dose Per Gram
Biodistribution, Lungs ([1]; 1 hour): 3.90 ± 1.80 % Injected Dose Per Gram
Biodistribution, Muscle ([1]; 1 hour): 0.32 ± 0.20 % Injected Dose Per Gram
Biodistribution, Spleen ([1]; 1 hour): 0.44 ± 0.76 % Injected Dose Per Gram
Biodistribution, Stomach ([1]; 1 hour): 0.935 % Injected Dose Per Gram
Biodistribution, Blood ([1]; 4 hours): 1.26 ± 0.22 % Injected Dose Per Gram
Biodistribution, Heart ([1]; 4 hours): 0.75 ± 1.30 % Injected Dose Per Gram
Biodistribution, Intestine ([1]; 4 hours): 2.02 ± 0.90 % Injected Dose Per Gram
Biodistribution, Kidneys ([1]; 4 hours): 28.50 ± 0.75 % Injected Dose Per Gram
Biodistribution, Liver ([1]; 4 hours): 1.49 ± 0.08 % Injected Dose Per Gram
Biodistribution, Lungs ([1]; 4 hours): 3.43 ± 1.35 % Injected Dose Per Gram
Biodistribution, Muscle ([1]; 4 hours): 2.31 ± 2.98 % Injected Dose Per Gram
Biodistribution, Stomach ([1]; 4 hours): 3.49 ± 5.10 % Injected Dose Per Gram
Biodistribution, Blood ([1]; 8 hours): 0.90 ± 0.29 % Injected Dose Per Gram
Biodistribution, Heart ([1]; 8 hours): 0.30 ± 0.52 % Injected Dose Per Gram
Biodistribution, Intestine ([1]; 8 hours): 0.89 ± 0.46 % Injected Dose Per Gram
Biodistribution, Kidneys ([1]; 8 hours): 19.20 ± 5.00 % Injected Dose Per Gram
Biodistribution, Liver ([1]; 8 hours): 1.03 ± 0.18 % Injected Dose Per Gram
Biodistribution, Lungs ([1]; 8 hours): 1.95 ± 1.04 % Injected Dose Per Gram
Biodistribution, Muscle ([1]; 8 hours): 0.59 ± 0.82 % Injected Dose Per Gram
Biodistribution, Stomach ([1]; 8 hours): 1.13 ± 0.98 % Injected Dose Per Gram
Biodistribution, Blood ([1]; 24 hours): 0.56 ± 0.09 % Injected Dose Per Gram
Biodistribution, Intestine ([1]; 24 hours): 0.58 ± 0.36 % Injected Dose Per Gram
Biodistribution, Kidneys ([1]; 24 hours): 8.4 ± 1.74 % Injected Dose Per Gram
Biodistribution, Liver ([1]; 24 hours): 0.42 ± 0.05 % Injected Dose Per Gram
Biodistribution, Lungs ([1]; 24 hours): 1.52 ± 1.02 % Injected Dose Per Gram
Biodistribution, Muscle ([1]; 24 hours): 0.68 ± 1.00 % Injected Dose Per Gram
Biodistribution, Stomach ([1]; 24 hours): 0.39 ± 0.34 % Injected Dose Per Gram
% 99mTc-Glucarate ([2]; 0.09 mg/ml glucaric acid): 43.0%
% 99mTcO2 ([2]; 0.09 mg/ml glucaric acid): 57.0%
% 99mTc-Glucarate ([2]; 0.19 mg/ml glucaric acid): 59.0%
% 99mTcO2 ([2]; 0.19 mg/ml glucaric acid): 41.0%
% 99mTc-Glucarate ([2]; 0.38 mg/ml glucaric acid): 70.0%
% 99mTcO2 ([2]; 0.38 mg/ml glucaric acid): 30.0%
% 99mTc-Glucarate ([2]; 0.76 mg/ml glucaric acid): 75.6%
% 99mTcO2 ([2]; 0.76 mg/ml glucaric acid): 24.4%
% 99mTc-Glucarate ([2]; 1.53 mg/ml glucaric acid): 80.5%
% 99mTcO2 ([2]; 1.53 mg/ml glucaric acid): 19.5%
% 99mTc-Glucarate ([2]; 3.06 mg/ml glucaric acid): 88.5%
% 99mTcO2 ([2]; 3.06 mg/ml glucaric acid): 11.5%
% 99mTc-Glucarate ([2]; 6.12 mg/ml glucaric acid): 100.0%
% 99mTcO2 ([2]; 6.12 mg/ml glucaric acid): .0%
% 99mTc-Glucarate ([2]; 12.25 mg/ml glucaric acid): 100.0%
% 99mTcO2 ([2]; 12.25 mg/ml glucaric acid): .0%
visualization of area of acute myocardial necrosis (acute myocardial infarct; dog): clearly visible
visualization of area of acute myocardial necrosis (acute myocardial infarct; [4]): clearly visualized
blood pool activity (acute myocardial infarct; dog): minimum blood activity
blood pool activity (acute myocardial infarct; [4]): minimum blood pool activity
time to avid myocardial infarct image (acute myocardial infarct; dogs): one and a half
uptake in area of myocardial infarction of the heart slices (acute myocardial infarct; excised heart slices, dog): Distinct uptake
effect of duration of cerebral injury on localization (cerebral infarct; 1, 3, 5 and 24 hours, rats): did not appear to affect localization
diffusion across the blood-brain barrier (cerebral infarct; imaging in the brain): can diffuse across the blood-brain barrier
Tc-99m-glucarate activity (mean +/- SD), ratio stroke regions to normal cerebral regions (cerebral infarct; injection 1 hour after infarct, rats): 2.98 +/- 0.7
Tc-99m-glucarate activity (mean +/- SD), ratio stroke regions to normal cerebral regions (cerebral infarct; injection 3 hours after infarct, rats): 4.1 +/- 1.7
Tc-99m-glucarate activity (mean +/- SD), ratio stroke regions to normal cerebral regions (cerebral infarct; injection 5 hours after infarct, rats): 4.1 +/- 2.4
Tc-99m-glucarate activity (mean +/- SD), ratio stroke regions to normal cerebral regions (cerebral infarct; injection 24 hours after infarct, rats): 4.8 +/- 1.9
accumulation in stroke compared with 99mTc-glucoheptonate (cerebral infarct; rats): more rapid and intense
ratios of activity in stroke regions to normal cerebral regions, in words (cerebral infarct; rats): maximal in all stroke animals
time to cerebral infarct image (cerebral infarct; rats): one
visualization of cerebral infarct regions by gamma scintigraphy (cerebral infarct; rats): All cerebral infarct regions were visualized
stable for a period of [3]: about 2 hours

^99m Tc-D-glucoheptonate
success as an imaging agent for myocardial infarct (myocardial infarct): less successful
